Reference: ChEMBL document CHEMBL1156829 (Proc Natl Acad Sci U S A, 2008)

Key:
[1] = test system: Plasmodium falciparum; assay: NOVARTIS: Inhibition of Plasmodium falciparum 3D7 (drug-susceptible) proliferation in erythrocyte-based infection assay; assay type: functional, organism-based; conditions: Plasmodium falciparum, 3D7
[2] = NOVARTIS: Cytotoxicity against human hepatocellular carcinoma cell line (Huh7); assay type: toxicity, cell-based, Huh-7; conditions: Huh7 cells (hepatocellular carcinoma cell line)
[3] = test system: Plasmodium falciparum; assay: NOVARTIS: Inhibition of Plasmodium falciparum W2 (drug-resistant) proliferation in erythrocyte-based infection assay; assay type: functional, organism-based; conditions: Plasmodium falciparum, W2; read-out: EC50

| SMILES | EC50 [1] [nM] | CC50 [2] [nM] | EC50 [3] [nM] |
| --- | --- | --- | --- |
| CCOC(=O)c1c(NC(=O)C(C)Sc2nnc(CNC(=O)c3ccco3)n2-c2cccc(C(F)(F)F)c2)sc2c1CCC2 (stereo unspecified) | > 12500 | > 100000 | 649 |
| CN(CCCNc1ccnc2cc(Cl)ccc12)C(=O)C1CC1 | 164 | > 7250 | 46.7 |
| COc1ccc(C=NNc2cc(C)nc3ccc(OC)cc23)c(OC)c1 | 33.1 | 6690 | 43.5 |
| Cn1nc(C(F)(F)F)c(-c2ccc(F)cc2)c1NC(=O)Nc1ccccc1 | 392 | 54300 | 353 |
| CN(C)CCNC(=O)c1cc2c(-c3ccc(Cl)cc3)nn(C)c2s1 | 339 | 64600 | 422 |
| O=c1c2c([nH]c3cc(Cl)ccc13)CCCC2 | 333 | > 100000 | 649 |
| CN(CCCNc1ccnc2cc(Cl)ccc12)C(=O)C(Cl)Cl | 28.6 | > 14000 | 91.4 |
| CC1=C(C(=O)OC2CCCCC2)C(c2ccc(F)cc2)C2=C(CC(c3ccccc3)CC2=O)N1 (stereo unspecified) | 3690 | > 100000 | 653 |
| COc1ccc(C=CC(=O)NC(=O)c2ccccc2O)cc1 | 132 | > 73500 | 479 |
| COC(=O)C1=C(C)NC2=C(C(=O)CC(C)(C)C2)C1c1ccc(C)o1 (stereo unspecified) | 1580 | > 100000 | 638 |
| Cc1c2c(cc3c1ccc1ccccc13)C[N+]1(CCCCC1)C2 | 1290 | > 100000 | 657 |
| N#CC(=Cc1cn(Cc2ccccc2Cl)c2ccccc12)c1nn(CCO)c(N)c1C#N | 273 | 44800 | 294 |
| COCCNC(=S)N(Cc1ccc(F)cc1)Cc1cc2ccc(C)c(C)c2[nH]c1=O | 412 | > 10000 | 64.2 |
| CC1=C(C(=O)OC(C)C)C(c2ccc([N+](=O)[O-])cc2)C2=C(CC(C)(C)CC2=O)N1 (stereo unspecified) | 1560 | 40000 | 255 |
| CCOc1ccc(CCNC(=O)Nc2ccc(F)cc2)cc1OCC | 751 | > 74700 | 492 |
| CC(C)CN1CCC(O)(c2ccc3oc(C(=O)Nc4ccc5c(c4)OCO5)cc3c2)CC1 | 1080 | 55200 | 363 |
| O=C(Nc1ccccc1[N+](=O)[O-])C1CC1(c1ccccc1)c1ccccc1 (stereo unspecified) | > 12500 | > 100000 | 647 |
| COc1ccc(C2CC(=O)C3=C(C2)NC(C)=C(C(=O)OC2CCCC2)C3c2ccc(OC)cc2)cc1 (stereo unspecified) | 3260 | > 100000 | 649 |
| COc1ccc(C2Nc3ccc4ccccc4c3C3=C2C(=O)CC(C)(C)C3)cc1Br (stereo unspecified) | 3190 | > 100000 | 649 |
| Cc1ccc[n+](C(C)C(=O)c2ccc(-c3ccccc3)cc2)c1 (stereo unspecified) | 1610 | > 100000 | 649 |
| O=C(Nc1ccc(-c2nc3ccc(-c4nc5ccc(NC(=O)c6cccc7ccccc67)cc5[nH]4)cc3[nH]2)cc1)c1cccc2ccccc12 | 742 | > 100000 | 641 |
| CCN1CCCC1CNc1ncnc2c1[nH]c1ccc(C)cc12 (stereo unspecified) | 269 | 21000 | 138 |
| CC1=C(C(=O)OCC(C)C)C(c2ccc(OCc3ccccc3)cc2)C2=C(CC(c3ccccc3)CC2=O)N1 (stereo unspecified) | 961 | > 100000 | 659 |
| O=C(O)c1ccc2c(c1)N=C(c1ccccc1)N(Cc1cccnc1)C2 | 476 | > 10000 | 65.7 |
| CC(C)(C)CC(C)(C)Nc1c(-c2ccccc2OC(=O)c2ccc(C(F)(F)F)cc2)nc2ccccn12 | 670 | > 10000 | 64 |
| CCCCCOC(=O)C1=C(C)NC2=C(C(=O)CCC2)C1c1ccc(OC)c(Br)c1 (stereo unspecified) | 615 | > 100000 | 650 |
| COc1cc2c(-c3cc(Br)ccc3O)nc3c(c(-c4ccccc4)nn3-c3ccccc3)c2cc1OC | 1150 | > 100000 | 655 |
